Measured values: patent publication US20230085440A1, “METHODS OF PREVENTING AND TREATING PAIN AND ASSOCIATED SYMPTOMS” (Ethismos Research, Inc., priority 2021, published 2023)

Molecular target: T1, 5-HT2c receptor (Homo sapiens, UniProt P28335)
T1 sequence (P28335 33-458): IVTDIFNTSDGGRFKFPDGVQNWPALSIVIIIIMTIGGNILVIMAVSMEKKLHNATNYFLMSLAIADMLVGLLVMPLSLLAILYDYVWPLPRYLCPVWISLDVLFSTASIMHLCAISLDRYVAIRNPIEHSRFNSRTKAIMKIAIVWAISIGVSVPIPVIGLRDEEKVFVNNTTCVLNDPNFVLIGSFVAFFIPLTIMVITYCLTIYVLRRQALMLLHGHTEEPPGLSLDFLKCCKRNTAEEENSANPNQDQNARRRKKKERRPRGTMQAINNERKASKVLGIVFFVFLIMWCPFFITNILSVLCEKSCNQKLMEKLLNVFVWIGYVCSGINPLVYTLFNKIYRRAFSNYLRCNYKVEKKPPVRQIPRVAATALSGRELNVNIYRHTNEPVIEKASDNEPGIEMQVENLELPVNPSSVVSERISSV
Test: [35S]guanosine 5-O-(3-thio)triphosphate binding (5-HT2c partial agonism)
Format: biochemical
Conditions: [35S]GTPgammaS binding, partial agonist

Emax: 52%
SMILES: Clc1ccc([C@]23CNC[C@H]2C3)cc1Cl [amitifadine]
